Earlier results, collected in patent US6319912A, “Cyclic regimens using 2,1-benzisothiazoline 2,2-dioxides” (American Home Products Corporation, priority 2000, dated 2001).

Tested on: hormone dependent prostate cancer
Settings: literature, Michna et al 1995

## CC#C[C@]1(O)CC[C@H]2[C@@H]3CCC4=CC(=O)CCC4=C3[C@@H](c3ccc(N(C)C)cc3)C[C@@]21C [mifepristone]
  effectiveness in a model of hormone dependent prostate cancer: effective

## CN(C)c1ccc([C@H]2C[C@]3(C)[C@@H](CC[C@]3(O)CCCO)[C@@H]3CCC4=CC(=O)CCC4=C32)cc1 [onapristone]
  effectiveness in a model of hormone dependent prostate cancer: effective
